Experiments:
[1] = molecular target: BACE1 enzyme (Homo sapiens (Human), UniProt P56817); experiment: BACE1 Cell-Free Assay (fluorescence polarization, cleavage of synthetic APP substrate); format: biochemical; conditions: average of 2 determinations; values marked b: geometric mean of 3-9 determinations
Excerpt: This assay measures the inhibition of the beta-secretase enzyme as it cleaves a non-native peptide.
A synthetic APP substrate that can be cleaved by beta-secretase having N-terminal biotin and made fluorescent by the covalent attachment of Oregon Green at the Cys residue is used to assay beta-secretase activity in the presence or absence of the inhibitory compounds. […] The BACE1 enzyme is affinity purified material from conditioned media of CHO-K1 cells that have been transfected with a soluble BACE construct (BACE1deltaTM96His). Compounds are incubated in a ½ log dose response curve from a top concentration of 100 μM with BACE1 enzyme and the biotinylated fluorescent peptide in 384-well black plates (Thermo Scientific #4318). BACE1 is at a final concentration of 0.1 nM with a final concentration of peptide substrate of 150 nM in a reaction volume of 30 μL assay buffer [100 mM sodium acetate, pH 4.5 (brought to pH with acetic acid), and 0.001% Tween-20]. Plates are covered and incubated for 3 hours at 37° C. The reaction is stopped with the addition of 30 μL of 1.5 μM Streptavidin (Pierce, #21125). After a 10 minute incubation at room temperature, plates are read on a PerkinElmer EnVision for fluorescence polarization (Ex485 nm/Em530 nm). The activity of the beta-secretase enzyme is detected by changes in the fluorescence polarization that occur when the substrate is cleaved by the enzyme.

[2] = tested on: sAPPβ levels in H4 human neuroglioma cells over-expressing the wild-type human APP695; experiment: Whole Cell Assay (In Vitro sAPPb Assay); format: cell-based; conditions: Homo sapiens, 18 hours treatment, average of 2 determinations, values marked b: geometric mean of 3-9 determinations
Method: Whole Cell Assay (In Vitro sAPPb Assay):
H4 human neuroglioma cells over-expressing the wild-type human APP695 are treated for 18 hours with compound in a final concentration 1% DMSO. sAPPβ levels are measured using TMB-ELISA with capture APP N-terminal antibody (Affinity BioReagents, OMA1-03132), wild-type sAPPβ specific reporter p192 (Elan), and tertiary anti rabbit-HRP (GE Healthcare).

Chain of BACE1 enzyme (P56817 46-457): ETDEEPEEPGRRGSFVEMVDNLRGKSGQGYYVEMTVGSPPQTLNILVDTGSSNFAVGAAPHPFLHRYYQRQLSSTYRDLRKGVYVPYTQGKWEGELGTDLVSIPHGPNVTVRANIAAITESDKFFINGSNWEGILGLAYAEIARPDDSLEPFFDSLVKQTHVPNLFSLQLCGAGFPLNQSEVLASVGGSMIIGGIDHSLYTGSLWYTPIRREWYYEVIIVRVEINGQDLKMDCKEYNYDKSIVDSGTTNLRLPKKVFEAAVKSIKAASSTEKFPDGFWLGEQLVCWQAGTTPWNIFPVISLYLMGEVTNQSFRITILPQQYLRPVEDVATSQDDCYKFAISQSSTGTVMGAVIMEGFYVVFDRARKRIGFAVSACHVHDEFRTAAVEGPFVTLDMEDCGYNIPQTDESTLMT

| SMILES | IC50 [1] [nM] | IC50 [2] [nM] |
| --- | --- | --- |
| COc1cc([C@H]2C[C@H]3CSC(N)=N[C@@]3(c3ccc(F)cc3F)CO2)ccn1 [Example 25, (4aR,6R,8aS)-8a-(2,4-Difluorophenyl)-6-(2-methoxypyridin-4-yl)-4,4a,5,6,8,8a-hexahydropyrano[3,4-d][1,3]thiazin-2-amine] | 384 | 40.5 |
| NC1=N[C@@]2(c3ccc(F)cc3F)CO[C@@H](c3ccc4nccn4c3)C[C@H]2CS1 [Example 28, (4aR,6R,8aS)-8a-(2,4-Difluorophenyl)-6-(imidazo[1,2-a]pyridin-6-yl)-4,4a,5,6,8,8a-hexahydropyrano[3,4-d][1,3]thiazin-2-amine] | 2150 | 15.5 |

The remaining molecules from weak to strong by IC50 [1], led by results:

| IC50 [1] [nM] | IC50 [2] [nM] | SMILES |
| --- | --- | --- |
| 36200 | 1360 | Cc1cnc([C@@H]2C[C@@H]3CSC(N)=N[C@]3(c3ccc(F)cc3F)CO2)cn1 [Example C89, (4aS,6S,8aR)-8a-(2,4-difluorophenyl)-6-(5-methylpyrazin-2-yl)-4,4a,5,6,8,8a-hexahydropyrano[3,4-d][1,3]thiazin-2-amine] |
| 1250 | 62.6 | COc1cncc([C@H]2C[C@H]3CSC(N)=N[C@@]3(c3ccc(F)cc3F)CO2)c1 [Example 26, (4aR,6R,8aS)-8a-(2,4-Difluorophenyl)-6-(5-methoxypyridin-3-yl)-4,4a,5,6,8,8a-hexahydropyrano[3,4-d][1,3]thiazin-2-amine] |
| 221 | 4.73 | Cc1cc([C@H]2C[C@H]3CSC(N)=N[C@@]3(c3ccc(F)cc3F)CO2)ccn1 [Example 27, (4aR,6R,8aS)-8a-(2,4-Difluorophenyl)-6-(2-methylpyridin-4-yl)-4,4a,5,6,8,8a-hexahydropyrano[3,4-d][1,3]thiazin-2-amine] |

Source: patent publication US8865706B2, “Heteroaryl-substituted hexahydropyrano[3,4-d][1,3]thiazin-2-amine compounds” (Pfizer Inc., priority 2013, dated 2014)
